# Experimental data taken from patent publication US20230399312A1, “SUBSTITUTED PYRIMIDINES AND METHODS OF USE” (THERAVANCE BIOPHARMA R&D IP, LLC, priority 2020, published 2023).
# Key:
# [1] = biological target: T1, recombinant human ALK5 (TGF-βR1) protein (Homo sapiens, UniProt P36897); test: Biochemical ALK5 (TGF-βR1) assay to measure pKi (LANCE Ultra ULight kinase assay); settings: apparent pKi, converted from pIC50 by Cheng-Prusoff
# T1 construct: purchased Life Technologies PR9075A
# T1 sequence (P36897 34-503): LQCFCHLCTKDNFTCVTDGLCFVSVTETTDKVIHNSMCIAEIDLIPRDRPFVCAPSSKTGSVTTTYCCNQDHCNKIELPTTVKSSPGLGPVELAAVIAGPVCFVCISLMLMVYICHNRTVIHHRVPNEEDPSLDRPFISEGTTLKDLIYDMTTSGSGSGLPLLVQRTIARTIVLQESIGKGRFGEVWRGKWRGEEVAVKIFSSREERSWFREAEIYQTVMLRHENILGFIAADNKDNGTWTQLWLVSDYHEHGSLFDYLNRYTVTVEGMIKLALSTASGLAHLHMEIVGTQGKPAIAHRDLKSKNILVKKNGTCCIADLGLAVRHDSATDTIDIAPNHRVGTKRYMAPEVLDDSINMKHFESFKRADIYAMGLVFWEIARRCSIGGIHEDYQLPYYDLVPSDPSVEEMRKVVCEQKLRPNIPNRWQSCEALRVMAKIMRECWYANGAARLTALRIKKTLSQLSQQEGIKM
# Procedure, shortened: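 Cmpd + enzyme, 60 min RT; ATP from 125 μM (5×) stock, 60 min 37 °C; stop 12 mM EDTA/Eu anti-pThr1342 Topo2α Ab (pH 7.0 buffer); TR-FRET 665 nm. DMSO = max, SD-208 = min signal. 4-PL pIC50 → pKi (Cheng-Prusoff).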
# [2] = tested on: TGF-β-stimulated SMAD3 phosphorylation in BEAS-2B cells; test: Cellular ALK5 potency assay, inhibition of TGF-β stimulated pSMAD3 formation in BEAS-2B cells; format: cell-based; settings: Homo sapiens, pSMAD3, TGF-β 10 ng/mL, read-out: BEAS2B pIC50 (converted)
# Procedure, shortened: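 Read-out is AlphaLISA detection of phospho-SMAD3 in lysates of BEAS-2B human lung epithelial cells. Cells are exposed to compound for 1 hour, then to 10 ng/mL TGF-β (final) for 30 minutes. Values are pIC50 from concentration–response curves.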
SMILES,Ki [1] [nM],IC50 [2] [nM]
"COC(=O)C1CCN(c2ccc(Nc3nccc(Nc4ccnc(-c5cccc(C)n5)n4)n3)cc2)CC1 [Compound 60, methyl 1-[4-[[4-[[2-(6-methyl-2-pyridyl)pyrimidin-4-yl]amino]pyrimidin-2-yl]amino]phenyl]piperidine-4-carboxylate]",0.0398 to 0.316,25.1 to 158
"Cc1cccc(-c2nccc(Nc3ccnc(Nc4ccc(C)c(CO)c4)n3)n2)n1 [Compound 61, [2-methyl-5-[[4-[[2-(6-methyl-2-pyridyl)pyrimidin-4-yl]amino]pyrimidin-2-yl]amino]phenyl]methanol]",0.0398 to 0.316,25.1 to 158
"COC(=O)c1ccc(Nc2nccc(Nc3ccnc(-c4cccc(C)n4)n3)n2)cc1 [Compound 62, methyl 4-[[4-[[2-(6-methyl-2-pyridyl)pyrimidin-4-yl]amino]pyrimidin-2-yl]amino]benzoate]",0.398 to 3.16,25.1 to 158
"Cc1cccc(-c2nccc(Nc3ccnc(Nc4ccc(S(=O)(=O)N(C)CCN)cc4)n3)n2)n1 [Compound 63, N-(2-aminoethyl)-N-methyl-4-[[4-[[2-(6-methyl-2-pyridyl)pyrimidin-4-yl]amino]pyrimidin-2-yl]amino]benzenesulfonamide]",0.0398 to 0.316,25.1 to 158
"COC[C@H]1CN(Cc2ccc(Nc3nccc(Nc4ccnc(-c5cccc(C)n5)n4)n3)cc2)CCN1 [Compound 64, N2-[4-[[(3R)-3-(methoxymethyl)piperazin-1-yl]methyl]phenyl]-N4-[2-(6-methyl-2-pyridyl)pyrimidin-4-yl]pyrimidine-2,4-diamine]",0.0398 to 0.316,25.1 to 158
"Cc1cccc(-c2nccc(Nc3ccnc(Nc4ccc(NC[C@H]5CCCN5)cc4)n3)n2)n1 [Compound 65, N4-[2-(6-methyl-2-pyridyl)pyrimidin-4-yl]-N2-[4-[[(2R)-pyrrolidin-2-yl]methylamino]phenyl] pyrimidine-2,4-diamine]",0.0398 to 0.316,25.1 to 158
"Cc1cccc(-c2nccc(Nc3ccnc(Nc4cccc(C(=O)OC5CCNCC5)c4)n3)n2)n1 [Compound 66, 4-piperidyl 3-[[4-[[2-(6-methyl-2-pyridyl)pyrimidin-4-yl]amino]pyrimidin-2-yl]amino]benzoate]",0.398 to 3.16,25.1 to 158
"Cc1cccc(-c2nccc(Nc3ccnc(Nc4ccc(CN5CCC[C@H](C(=O)OCC6CNC6)C5)cc4)n3)n2)n1 [Compound 67, azetidin-3-ylmethyl (3S)-1-[[4-[[4-[[2-(6-methyl-2-pyridyl)pyrimidin-4-yl]amino]pyrimidin-2-yl]amino]phenyl]methyl] piperidine-3-carboxylate]",0.0398 to 0.316,25.1 to 158
"Cc1cccc(-c2nccc(Nc3ccnc(Nc4ccc(CN5CC(C(=O)O[C@@H]6CCN(C)C6)C5)cc4)n3)n2)n1 [Compound 69, [(3R)-1-methylpyrrolidin-3-yl] 1-[[4-[[4-[[2-(6-methyl-2-pyridyl)pyrimidin-4-yl]amino]pyrimidin-2-yl]amino]phenyl]methyl] azetidine-3-carboxylate]",0.0398 to 0.316,25.1 to 158
"Cc1cccc(-c2nccc(Nc3ccnc(Nc4ccc(S(=O)(=O)NCCN(C)C)cc4)n3)n2)n1 [Compound 70, N-[2-(dimethylamino)ethyl]-4-[[4-[[2-(6-methyl-2-pyridyl)pyrimidin-4-yl]amino]pyrimidin-2-yl]amino]benzenesulfonamide]",0.0398 to 0.316,25.1 to 158
"Cc1cccc(-c2nccc(Nc3ccnc(Nc4ccc(N5CCC(C(=O)O)CC5)cc4)n3)n2)n1 [Compound 71, 1-[4-[[4-[[2-(6-methyl-2-pyridyl)pyrimidin-4-yl]amino]pyrimidin-2-yl]amino]phenyl]piperidine-4-carboxylic acid]",0.0398 to 0.316,25.1 to 158
"Cc1cccc(-c2nccc(Nc3ccnc(Nc4cccc(C(=O)N5CCOCC5)c4)n3)n2)n1 [Compound 72, [3-[[4-[[2-(6-methyl-2-pyridyl)pyrimidin-4-yl]amino]pyrimidin-2-yl]amino]phenyl]-morpholino-methanone]",0.398 to 3.16,25.1 to 158
"Cc1cccc(-c2nccc(Nc3ccnc(Nc4ccc(CN5CCC[C@H](C(=O)OCC6CN(C)C6)C5)cc4)n3)n2)n1 [Compound 73, (1-methylazetidin-3-yl)methyl (3S)-1-[[4-[[4-[[2-(6-methyl-2-pyridyl)pyrimidin-4-yl]amino]pyrimidin-2-yl]amino]phenyl]methyl] piperidine-3-carboxylate]",0.0398 to 0.316,25.1 to 158
"Cc1cccc(-c2nccc(Nc3ccnc(Nc4ccc(CN5CC[C@H](O)C5)cc4)n3)n2)n1 [Compound 74, (3S)-1-[[4-[[4-[[2-(6-methyl-2-pyridyl)pyrimidin-4-yl]amino]pyrimidin-2-yl]amino]phenyl]methyl] pyrrolidin-3-ol]",0.0398 to 0.316,25.1 to 158
"Cc1cccc(-c2nccc(Nc3ccnc(Nc4ccc(CN5C[C@H]6CC[C@@H](C5)N6)cc4)n3)n2)n1 [Compound 75, N4-[2-(6-methyl-2-pyridyl)pyrimidin-4-yl]-N2-[4-[[rac-(1S,5R)-3,8-diazabicyclo[3.2.1]octan-3-yl]methyl]phenyl]pyrimidine-2,4-diamine]",0.0398 to 0.316,25.1 to 158
"Cc1cccc(-c2nccc(Nc3ccnc(Nc4ccc(NC(=O)C5CNC5)cc4)n3)n2)n1 [Compound 76, N-[4-[[4-[[2-(6-methyl-2-pyridyl)pyrimidin-4-yl]amino]pyrimidin-2-yl]amino]phenyl]azetidine-3-carboxamide]",0.0398 to 0.316,≤ 20
"Cc1cccc(-c2nccc(Nc3ccnc(Nc4ccc(NC(=O)C5CCN(C6CCOCC6)CC5)cc4)n3)n2)n1 [Compound 77, N-[4-[[4-[[2-(6-methyl-2-pyridyl)pyrimidin-4-yl]amino]pyrimidin-2-yl]amino]phenyl]-1-tetrahydropyran-4-yl-piperidine-4-carboxamide]",0.0398 to 0.316,25.1 to 158
"Cc1cccc(-c2nccc(Nc3ccnc(Nc4ccc(NC(=O)C5CCNC5)cc4)n3)n2)n1 (stereo not shown) [Compound 78, N-[4-[[4-[[2-(6-methyl-2-pyridyl)pyrimidin-4-yl]amino]pyrimidin-2-yl]amino]phenyl]pyrrolidine-3-carboxamide]",0.0398 to 0.316,≤ 20
"COc1cc(Nc2nccc(Nc3ccnc(-c4cccc(C)n4)n3)n2)ccc1N1CCOCC1 [Compound 79, N2-(3-methoxy-4-morpholino-phenyl)-N4-[2-(6-methyl-2-pyridyl)pyrimidin-4-yl]pyrimidine-2,4-diamine]",0.0398 to 0.316,25.1 to 158
"CCN1CCN(c2ccc(Nc3nccc(Nc4ccnc(-c5cccc(C)n5)n4)n3)cc2)CC1 [Compound 80, N2-[4-(4-ethylpiperazin-1-yl)phenyl]-N4-[2-(6-methyl-2-pyridyl)pyrimidin-4-yl]pyrimidine-2,4-diamine]",0.0398 to 0.316,25.1 to 158
"Cc1cccc(-c2nccc(Nc3ccnc(Nc4ccc(C)c(CN5C[C@@H](C)N[C@@H](C)C5)c4)n3)n2)n1 [Compound 81, N4-[2-(6-methyl-2-pyridyl)pyrimidin-4-yl]-N2-[4-methyl-3-[[rac-(3R,5S)-3,5-dimethylpiperazin-1-yl]methyl]phenyl]pyrimidine-2,4-diamine]",0.0398 to 0.316,25.1 to 158
"Cc1cccc(-c2nccc(Nc3ccnc(Nc4ccc(CC(=O)O)cc4)n3)n2)n1 [Compound 82, 2-[4-[[4-[[2-(6-methyl-2-pyridyl)pyrimidin-4-yl]amino]pyrimidin-2-yl]amino]phenyl]acetic acid]",0.398 to 3.16,1580 to 10000
"COC(=O)C1CCCN(c2ccc(Nc3nccc(Nc4ccnc(-c5cccc(C)n5)n4)n3)cc2)C1 (stereo not shown) [Compound 83, methyl 1-[4-[[4-[[2-(6-methyl-2-pyridyl)pyrimidin-4-yl]amino]pyrimidin-2-yl]amino]phenyl]piperidine-3-carboxylate]",0.0398 to 0.316,25.1 to 158
"Cc1cccc(-c2nccc(Nc3ccnc(Nc4cnn(CCN5CCOCC5)c4)n3)n2)n1 [Compound 84, N4-(2-(6-methylpyridin-2-yl)pyrimidin-4-yl)-N2-(1-(2-morpholinoethyl)-1H-pyrazol-4-yl)pyrimidine-2,4-diamine]",0.0398 to 0.316,25.1 to 158
"Cc1cccc(-c2nccc(Nc3ccnc(Nc4cc(C(=O)OC5CCNCC5)cs4)n3)n2)n1 [Compound 85, 4-piperidyl 5-[[4-[[2-(6-methyl-2-pyridyl)pyrimidin-4-yl]amino]pyrimidin-2-yl]amino]thiophene-3-carboxylate]",0.0398 to 0.316,25.1 to 158
"Cc1cccc(-c2nccc(Nc3ccnc(Nc4cnc(N5CCNCC5)nc4)n3)n2)n1 [Compound 86, N4-(2-(6-methylpyridin-2-yl)pyrimidin-4-yl)-N2-(2-(piperazin-1-yl)pyrimidin-5-yl)pyrimidine-2,4-diamine]",0.398 to 3.16,200 to 1260
